From PubChem BioAssay AID2060625 (Molecular Pharmacology Branch, DTP, NCI, 2025)

Tested on: 186277-243-T-J2-PDC spheroids with HUVEC/MSC, viability
Assay: Anticancer human tumor 186277-243-T-J2-PDC patient-derived colon adenocarcinoma cell line growth inhibition [CLK]
Settings: for IC50: curve of first compound; for viability, T/C: stronger effect = lower value; active = viability on the fitted dose curve at most 10% of control; inactive = the rest
Source text: A high-throughput screen of multi-cell type tumor spheroids was designed to identify active combinations of […] and targeted small molecules. Complex spheroids include a stromal component modeled by human endothelial cells (HUVEC) and fibroblasts modeled by human mesenchymal stem cells (MSCs). The concentration ranges selected for each drug and investigational agent were based upon clinically achievable concentrations if the clinical Cmax of the agent was known.
Compounds. The drugs and investigational agents: cirtuvivint (SM08502; NSC835563), CC-671 (NSC850746), vemurafenib (NSC761431), tapotoclax (NSC804041), sotorasib (NSC818433), adagrasib (NSC831453), MRTX-1133 (NSC836407), BAY2416964 (NSC825713), copanlisib (NSC816437), inavolisib (NSC800729), abemaciclib (NSC768073), osimertinib (NSC779217), entinostat (NSC756642), eltanexor (KPT-8602, NSC794443), venetoclax (NSC766270), ceralasertib (NSC777638), bortezomib (NSC756655), olaparib (NSC753686), talazoparib (NSC767125), alisertib (NSC759677), peposertib (NSC802822), gemcitabine (NSC613327), 5-fluorouracil (NSC19893), SN-38 (NSC673596), oxaliplatin (NSC266046), paclitaxel (NSC125973), and doxorubicin (NSC123127), were obtained from the National Cancer Institute (NCI) Developmental Therapeutics Program Chemical Repository. The FDA-approved anticancer drug set is available from the Developmental Therapeutics Program at https://dtp.cancer.gov/organization/dscb/obtaining/available plates.htm. […] The stock solutions were prepared in dimethyl sulfoxide (DMSO, Sigma-Aldrich, St. Louis, MO, cat. D2650), except for the platinum complexes which were prepared in saline (Quality Biological, Gaithersburg, MD, cat. 114-055-101), at 800-fold the tested concentration and stored at -70 degrees C prior to their use. All drugs and investigational agents were tested over a range starting from a high concentration at or near the clinical Cmax and decreasing in half-log increments. If the clinical Cmax for an agent had not been determined, the highest concentration tested was 10 microM.
Cell Culture. All cells were maintained in an incubator at 37 degrees C and 5% CO2 with 95% humidity. The PDC lines were cultured according to standard operating procedures established by the NCI PDMR. Briefly, all PDCs were thawed and cultured in Matrigel-coated flasks prepared with a working solution of 1X Ham's F-12 nutrient mix, without supplementation (Invitrogen, Waltham, MA, cat. 11765054), 100 U/mL penicillin-streptomycin (Invitrogen, cat. 15140122), and 2.5% Matrigel (Corning Inc., Corning, NY, cat. 354248) for the first three passages. The 947758-054-R-J2-PDC line was cultured in 6B/Colon 1A media, which includes advanced DMEM/F-12 (Thermo Fisher Scientific, cat. 12634028), 10 mM HEPES (Thermo Fisher Scientific, cat. 15630080), 1X GlutaMAX supplement (Thermo Fisher Scientific, cat. 35050061), 0.1 mg/mL primocin (InvivoGen, cat. ant-pm-2), 10% defined fetal bovine serum, heat inactivated (HyClone Laboratories Inc., cat. SH30070.03HI), 1.25 mM N-Acetyl-L-cysteine (Sigma-Aldrich, cat. A9165), 10 mM nicotinamide (Sigma-Aldrich, cat. N0636), 1X B-27 supplement (Thermo Fisher Scientific, cat. 17504044), 1X N-2 supplement (Thermo Fisher Scientific, cat. 17502048), and 10 microM Y-27632 dihydrochloride (Tocris Bioscience, cat. 1254). The 876862-298-R-J1-PDC was cultured in 6E media, which includes all 6B/Colon 1A media components plus 50% L-WRN conditioned media (ATCC, cat. CRL-3276), 50 ng/mL recombinant human EGF recombinant protein (hEGF; Thermo Fisher Scientific, cat. PHG0311), 10 ng/mL recombinant human fibroblast growth factor 10 (hGFG-10; PeproTech, cat. 100-26), 1 ng/mL recombinant human fibroblast growth factor 2 (hFGF-2; PeproTech, cat. 100-18B), and 1 µM prostaglandin E2 (PGE2; Tocris, cat. 2296). The 227483-062-R1-J1-PDC line was cultured in Panc media, containing all 6E components except hFGF-2, with the addition of 500 nM SB-431542 (Selleckchem, cat. S1067) and 10 nM gastrin (Tocris, cat. 3006). […]

[1] = second compound 0.0316 µM, first compound 0.0316 µM
[2] = second compound 0.0316 µM, first compound 0.1 µM
[3] = second compound 0.0316 µM, first compound 0.316 µM
[4] = second compound 0.0316 µM, first compound 1 µM
[5] = second compound 0.1 µM, first compound 0.0316 µM
[6] = second compound 0.1 µM, first compound 0.1 µM
[7] = second compound 0.1 µM, first compound 0.316 µM
[8] = second compound 0.1 µM, first compound 1 µM
[9] = second compound 0.316 µM, first compound 0.0316 µM
[10] = second compound 0.316 µM, first compound 0.1 µM
[11] = second compound 0.316 µM, first compound 0.316 µM
[12] = second compound 0.316 µM, first compound 1 µM
[13] = second compound 1 µM, first compound 0.0316 µM
[14] = second compound 1 µM, first compound 0.1 µM
[15] = second compound 1 µM, first compound 0.316 µM
[16] = second compound 1 µM, first compound 1 µM
[17] = second compound 3.16 µM, first compound 0.0316 µM
[18] = second compound 3.16 µM, first compound 0.1 µM
[19] = second compound 3.16 µM, first compound 0.316 µM
[20] = second compound 3.16 µM, first compound 1 µM
[21] = second compound 10 µM, first compound 0.0316 µM
[22] = second compound 10 µM, first compound 0.1 µM
[23] = second compound 10 µM, first compound 0.316 µM
[24] = second compound 10 µM, first compound 1 µM
[25] = second compound 0.0316 µM, first compound 0.00316 µM
[26] = second compound 0.0316 µM, first compound 0.01 µM
[27] = second compound 0.1 µM, first compound 0.00316 µM
[28] = second compound 0.1 µM, first compound 0.01 µM
[29] = second compound 0.316 µM, first compound 0.00316 µM
[30] = second compound 0.316 µM, first compound 0.01 µM
[31] = second compound 1 µM, first compound 0.00316 µM
[32] = second compound 1 µM, first compound 0.01 µM
[33] = second compound 3.16 µM, first compound 0.00316 µM
[34] = second compound 3.16 µM, first compound 0.01 µM
[35] = second compound 10 µM, first compound 0.00316 µM
[36] = second compound 10 µM, first compound 0.01 µM
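Note: compound exposure lasted seven days before readout.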
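Throughout, for viability, T/C: 100% = DMSO vehicle control wells.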

CC(Nc1ccc2c(c1)OCCn1cc(N3C(=O)OCC3C(F)F)nc1-2)C(N)=O (stereo unspecified) + CN1CCN(c2cc(C(=O)Nc3cc4cc(-c5cnn(C)c5)ccc4cn3)ccn2)CC1
active: viability, T/C [11] 7.85% | viability, T/C [12] 3.43% | viability, T/C (second compound 0.316 µM, first compound 3.16 µM) 2.25% | viability, T/C (second compound 0.316 µM, first compound 10 µM) 1.31% | viability, T/C [13] 0.25% | viability, T/C [14] 0.73% | viability, T/C [15] 0.91% | viability, T/C [16] 0.46% | viability, T/C (second compound 1 µM, first compound 3.16 µM) 0.47% | viability, T/C (second compound 1 µM, first compound 10 µM) 1.48% | viability, T/C [17] 1.24% | viability, T/C [18] 0.72% | viability, T/C [19] 1.34% | viability, T/C [20] 0.69% | viability, T/C (second compound 3.16 µM, first compound 3.16 µM) 0.82% | viability, T/C (second compound 3.16 µM, first compound 10 µM) 0.74% | viability, T/C [21] 0.96% | viability, T/C [22] 1.39% | viability, T/C [23] 0.74% | viability, T/C [24] 0.87% | viability, T/C (second compound 10 µM, first compound 3.16 µM) 0.87% | viability, T/C (second compound 10 µM, first compound 10 µM) 0.69%
828 nM: IC50 (second compound 0.0316 µM)
158 nM: IC50 (second compound 0.1 µM)
inactive: viability, T/C [1] 87.7% | viability, T/C [2] 94.8% | viability, T/C [3] 59.2% | viability, T/C [4] 55.8% | viability, T/C (second compound 0.0316 µM, first compound 3.16 µM) 46.4% | viability, T/C (second compound 0.0316 µM, first compound 10 µM) 42.4% | viability, T/C [5] 71.8% | viability, T/C [6] 54.4% | viability, T/C [7] 42.3% | viability, T/C [8] 30.4% | viability, T/C (second compound 0.1 µM, first compound 3.16 µM) 19.4% | viability, T/C (second compound 0.1 µM, first compound 10 µM) 13.4% | viability, T/C [9] 20.5% | viability, T/C [10] 17.4%
< 31.6 nM: IC50 (second compound 0.316 µM) | IC50 (second compound 1 µM) | IC50 (second compound 3.16 µM) | IC50 (second compound 10 µM)

CCN1CCN(Cc2ccc(Nc3ncc(F)c(-c4cc(F)c5nc(C)n(C(C)C)c5c4)n3)nc2)CC1 + CN1CCN(c2cc(C(=O)Nc3cc4cc(-c5cnn(C)c5)ccc4cn3)ccn2)CC1
< 3.16 nM: IC50 (second compound 0.316 µM) | IC50 (second compound 1 µM) | IC50 (second compound 3.16 µM) | IC50 (second compound 10 µM)
inactive: viability, T/C [25] 85.5% | viability, T/C [26] 79.4% | viability, T/C [1] 95.7% | viability, T/C [2] 103% | viability, T/C [3] 99% | viability, T/C [4] 102% | viability, T/C [27] 78.9% | viability, T/C [28] 100% | viability, T/C [5] 91.4% | viability, T/C [6] 79.5% | viability, T/C [7] 71.9% | viability, T/C [8] 69.3% | viability, T/C [29] 25.5% | viability, T/C [30] 32.6% | viability, T/C [9] 28.9% | viability, T/C [10] 29.9% | viability, T/C [11] 36.8% | viability, T/C [12] 31.8%
> 1000 nM: IC50 (second compound 0.0316 µM) | IC50 (second compound 0.1 µM)
active: viability, T/C [31] 0.99% | viability, T/C [32] 0.98% | viability, T/C [13] 0.48% | viability, T/C [14] 0.4% | viability, T/C [15] 1.43% | viability, T/C [16] 1.19% | viability, T/C [33] 2.53% | viability, T/C [34] 1.22% | viability, T/C [17] 0.9% | viability, T/C [18] 1.58% | viability, T/C [19] 1.39% | viability, T/C [20] 2.07% | viability, T/C [35] 0.79% | viability, T/C [36] 0.62% | viability, T/C [21] 1.4% | viability, T/C [22] 1.82% | viability, T/C [23] 0.83% | viability, T/C [24] 0.55%

COc1c(OCCCN2CCOCC2)ccc2c3n(c(=NC(=O)c4cnc(N)nc4)nc12)CCN3 + CN1CCN(c2cc(C(=O)Nc3cc4cc(-c5cnn(C)c5)ccc4cn3)ccn2)CC1
7.37 nM: IC50 (second compound 0.1 µM)
< 3.16 nM: IC50 (second compound 0.316 µM) | IC50 (second compound 1 µM) | IC50 (second compound 3.16 µM) | IC50 (second compound 10 µM)
27 nM: IC50 (second compound 0.0316 µM)
inactive: viability, T/C [25] 93.9% | viability, T/C [26] 69% | viability, T/C [1] 50% | viability, T/C [2] 25.4% | viability, T/C [3] 14.8% | viability, T/C [4] 12.5% | viability, T/C [27] 68.3% | viability, T/C [28] 43% | viability, T/C [5] 21.3% | viability, T/C [29] 20% | viability, T/C [30] 11.7%
active: viability, T/C [6] 7.94% | viability, T/C [7] 6.07% | viability, T/C [8] 5.15% | viability, T/C [9] 3.4% | viability, T/C [10] 1.12% | viability, T/C [11] 1.11% | viability, T/C [12] 0.75% | viability, T/C [31] 2.09% | viability, T/C [32] 0.39% | viability, T/C [13] 0.99% | viability, T/C [14] 0.18% | viability, T/C [15] 0.78% | viability, T/C [16] 0.88% | viability, T/C [33] 2.33% | viability, T/C [34] 1.2% | viability, T/C [17] 1.43% | viability, T/C [18] 0.42% | viability, T/C [19] 0.95% | viability, T/C [20] 0.47% | viability, T/C [35] 0.65% | viability, T/C [36] 0.74% | viability, T/C [21] 0.78% | viability, T/C [22] 0.76% | viability, T/C [23] 1.19% | viability, T/C [24] 0.45%
